Experimental data as given in patent EP4467141A1, “PYRAZOLO-QUINOLINES AS SELECTIVE INHIBITORS OF GENOTOXIC STRESS-INDUCED IKK/NF- KB PATHWAYS FOR CANCER THERAPY” (Max-Delbrück-Centrum für Molekulare Medizin in der …, priority 2023, dated 2024).

Experiments:
CDC42 BPG (MRCKG) = target: T1, CDC42 BPG (MRCKG) (Homo sapiens, UniProt Q6DT37); test: Kinase panel study; format: biochemical; conditions: read-out: Percentage of inhibition; for inhibition at 1 µM: 1000nM; for inhibition at 10 µM: 10000nM
T1 construct: purchased Thermo Fisher Scientific
Summary of the method: (§1)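 Percent inhibition of each kinase by the test compound, given at either 1 µM or 10 µM, came from a contracted panel run by ZLyte or Adapta protocol.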

SPHK2 = target: T2, SPHK2 (Homo sapiens, UniProt Q9NRA0); test: Kinase panel study; format: biochemical; conditions: read-out: Percentage of inhibition; for inhibition at 1 µM: 1000nM; for inhibition at 10 µM: 10000nM
T2 construct: purchased Thermo Fisher Scientific
T2 sequence (Q9NRA0 1-654): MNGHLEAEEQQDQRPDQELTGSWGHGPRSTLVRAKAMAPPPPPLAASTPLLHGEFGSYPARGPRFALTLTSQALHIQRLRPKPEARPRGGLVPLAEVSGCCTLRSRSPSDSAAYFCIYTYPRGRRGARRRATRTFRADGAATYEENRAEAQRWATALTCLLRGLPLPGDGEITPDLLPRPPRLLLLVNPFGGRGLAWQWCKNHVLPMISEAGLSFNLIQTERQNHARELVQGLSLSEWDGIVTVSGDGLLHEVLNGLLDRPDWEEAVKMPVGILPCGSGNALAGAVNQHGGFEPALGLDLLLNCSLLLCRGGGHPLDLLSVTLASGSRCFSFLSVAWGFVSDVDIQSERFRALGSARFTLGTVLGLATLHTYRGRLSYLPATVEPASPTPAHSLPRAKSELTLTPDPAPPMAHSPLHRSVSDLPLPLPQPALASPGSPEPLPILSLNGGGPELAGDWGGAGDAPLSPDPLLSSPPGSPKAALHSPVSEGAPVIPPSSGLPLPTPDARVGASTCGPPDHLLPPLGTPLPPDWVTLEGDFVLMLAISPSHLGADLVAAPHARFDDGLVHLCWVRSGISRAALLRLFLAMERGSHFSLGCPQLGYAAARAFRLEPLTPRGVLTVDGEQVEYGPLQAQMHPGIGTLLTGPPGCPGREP
Summary of the method: as §1

T1 sequence (Q6DT37 whole entry): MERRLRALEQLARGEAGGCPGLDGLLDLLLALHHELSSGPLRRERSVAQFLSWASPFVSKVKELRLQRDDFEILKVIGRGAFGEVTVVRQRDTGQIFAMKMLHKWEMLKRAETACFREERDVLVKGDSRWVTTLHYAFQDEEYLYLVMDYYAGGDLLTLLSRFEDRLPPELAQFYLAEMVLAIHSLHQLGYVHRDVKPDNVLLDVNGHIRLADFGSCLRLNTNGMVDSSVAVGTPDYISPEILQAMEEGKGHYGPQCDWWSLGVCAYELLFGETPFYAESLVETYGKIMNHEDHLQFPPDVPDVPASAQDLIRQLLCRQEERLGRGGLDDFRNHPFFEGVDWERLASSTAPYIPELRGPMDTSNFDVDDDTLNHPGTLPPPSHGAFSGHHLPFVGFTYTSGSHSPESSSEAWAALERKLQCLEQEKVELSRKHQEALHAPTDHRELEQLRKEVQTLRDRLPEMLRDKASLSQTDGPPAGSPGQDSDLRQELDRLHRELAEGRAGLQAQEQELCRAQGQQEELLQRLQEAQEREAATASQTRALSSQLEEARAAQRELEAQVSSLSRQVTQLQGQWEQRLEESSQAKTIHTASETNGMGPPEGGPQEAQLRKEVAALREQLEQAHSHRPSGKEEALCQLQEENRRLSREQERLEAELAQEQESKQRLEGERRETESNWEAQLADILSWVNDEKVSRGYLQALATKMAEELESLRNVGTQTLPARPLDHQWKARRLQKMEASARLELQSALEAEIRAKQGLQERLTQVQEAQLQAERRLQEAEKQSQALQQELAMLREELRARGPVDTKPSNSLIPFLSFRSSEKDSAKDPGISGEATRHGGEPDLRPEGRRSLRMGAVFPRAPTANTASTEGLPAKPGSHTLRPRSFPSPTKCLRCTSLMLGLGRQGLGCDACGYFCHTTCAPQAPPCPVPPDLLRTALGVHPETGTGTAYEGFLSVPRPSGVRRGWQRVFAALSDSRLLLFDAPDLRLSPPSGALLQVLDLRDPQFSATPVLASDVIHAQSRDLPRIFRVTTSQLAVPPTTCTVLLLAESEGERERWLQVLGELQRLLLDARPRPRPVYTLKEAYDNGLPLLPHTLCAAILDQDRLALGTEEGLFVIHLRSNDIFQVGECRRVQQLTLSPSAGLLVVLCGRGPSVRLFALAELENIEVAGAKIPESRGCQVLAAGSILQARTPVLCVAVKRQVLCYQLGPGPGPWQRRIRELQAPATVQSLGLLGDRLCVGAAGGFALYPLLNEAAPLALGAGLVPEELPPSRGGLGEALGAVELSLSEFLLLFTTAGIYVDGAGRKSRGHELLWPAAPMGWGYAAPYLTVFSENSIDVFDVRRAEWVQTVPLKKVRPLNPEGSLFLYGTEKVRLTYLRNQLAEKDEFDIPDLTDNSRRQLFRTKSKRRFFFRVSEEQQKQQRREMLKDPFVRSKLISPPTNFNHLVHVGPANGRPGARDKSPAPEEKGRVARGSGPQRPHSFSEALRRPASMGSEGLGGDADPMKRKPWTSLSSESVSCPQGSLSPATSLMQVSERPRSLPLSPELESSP

Row | Compound | inhibition at 1 µM (CDC42 BPG (MRCKG)) | inhibition at 10 µM (CDC42 BPG (MRCKG)) | inhibition at 1 µM (SPHK2) | inhibition at 10 µM (SPHK2)
1 | COc1ccc2c(c1OC)c(=O)n1c3ccc(O)cc3c3ccnc2c31 [MW01, 5-Hydroxy-10,11-dimethoxy-9H-benzo[c]indolo[3,2,1-ij][1,5]naphthyridin-9-one] | 1% | 5% | -16% | -8%
2 | COc1ccc2cc3c(N)nn(C(=O)c4cccc(N(C)C)c4)c3nc2c1 [MW05, (3-Amino-7-methoxypyrazolo[3,4-b]quinolin-1-yl)-[3-(dimethylamino)phenyl]methanone] | 0% | 0% | -7% | -4%
